Source: patent US6914045B2, “Glycopeptide antibiotics” (Wyeth Holdings Corporation, priority 2001, dated 2005)
Converted amounts (≈) assume the structure as drawn.

Experiments:
Test in all cases: in vitro antibacterial evaluation, MIC by broth dilution
Format in all cases: cell-based
Staphylococcus sp. = conditions: broth dilution, 18 hours at 35° C.; for MIC Staphylococcus aureus (GC 1131): strain GC 1131
Outline: (§1)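 Following National Committee for Clinical Laboratory Standards recommendations (M7-A2), susceptibility was measured by dilution in Muller-Hinton II […]. Bacteria were seeded at 5×10^5 CFU/mL against compound concentrations from 64 down to 0.06 μg/mL.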

Escherichia coli = tested on: Escherichia coli
Outline: as §1

Enterococcus sp. = conditions: broth dilution, 18 hours at 35° C.
Outline: as §1

Streptococcus sp. = conditions: broth dilution, 18 hours at 35° C.
Outline: as §1

`CC(c1ccccc1)C1NC(=O)CNC(=O)C(CO)NC(=O)C(C(O)C2CNC(=N)N2C2OC(CO)C(O)C(O)C2O)NC(=O)C(C(O)C2CNC(=N)N2)NC(=O)C(Cc2ccc(OC3OC(CO)C(OC4OC5COC(c6ccc7c(c6)OCCO7)OC5C(O)C4O)C(O)C3O)cc2)NC1=O` (stereo not drawn) [Example 149] was tested, and the “MIC Staphylococcus aureus (GC 1131)” value (Staphylococcus sp.; inoculum 5×10^5 CFU/mL) was 2 µg/mL (≈ 1.39 µM), the “MIC Staphylococcus aureus (ATCC 29213)” value (Staphylococcus sp.; strain ATCC 29213) was 2 µg/mL (≈ 1.39 µM) and the “MIC Staphylococcus aureus (GC 1131)” value (Staphylococcus sp.) was 2 µg/mL (≈ 1.39 µM). For the same compound, the “MIC Staphylococcus aureus (GC 3051)” value (Staphylococcus sp.; strain GC 3051) was 2 µg/mL (≈ 1.39 µM), the “MIC Staphylococcus aureus (GC 3053)” value (Staphylococcus sp.; strain GC 3053) was 4 µg/mL (≈ 2.78 µM) and the “MIC Staphylococcus aureus (GC 4541)” value (Staphylococcus sp.; strain GC 4541) was 2 µg/mL (≈ 1.39 µM). The “MIC Staphylococcus aureus (GC 4542)” value (Staphylococcus sp.; strain GC 4542) was 2 µg/mL (≈ 1.39 µM), the “MIC Staphylococcus aureus-SMITH (GC 4543)” value (Staphylococcus sp.; strain GC 4543) was 2 µg/mL (≈ 1.39 µM) and the “MIC Staphylococcus aureus (GC 4544)” value (Staphylococcus sp.; strain GC 4544) was 2 µg/mL (≈ 1.39 µM). The “MIC Staphylococcus aureus (GC 4545)” value (Staphylococcus sp.; strain GC 4545) was 2 µg/mL (≈ 1.39 µM), the “MIC Staphylococcus haemolyticus (GC 4546)” value (Staphylococcus sp.; strain GC 4546) was 1 µg/mL (≈ 0.694 µM) and the “MIC Coagulase Negative Staphylococcus (GC 4547)” value (Staphylococcus sp.; strain GC 4547) was 1 µg/mL (≈ 0.694 µM). For the same compound, the “MIC Coagulase Negative Staphylococcus (GC 4548)” value (Staphylococcus sp.; strain GC 4548) was 1 µg/mL (≈ 0.694 µM), the “MIC Coagulase Negative Staphylococcus (GC 4549)” value (Staphylococcus sp.; strain GC 4549) was 1 µg/mL (≈ 0.694 µM) and the “MIC Coagulase Negative Staphylococcus (GC 4551)” value (Staphylococcus sp.; strain GC 4551) was 1 µg/mL (≈ 0.694 µM). The “MIC Coagulase Negative Staphylococcus (GC 6257)” value (Staphylococcus sp.; strain GC 6257) was 1 µg/mL (≈ 0.694 µM), the “MIC Staphylococcus aureus-SMITH (GC 4543)” value (Staphylococcus sp.; strain SMITH GC 4543) was 2 µg/mL (≈ 1.39 µM) and the “MIC Escherichia coli (ATCC 25922)” value (Escherichia coli; strain ATCC 25922, 18 hours at 35° C.) was >64 µg/mL. For the same compound, the “MIC Escherichia coli (GC 4559)” value (Escherichia coli; strain GC 4559, 18 hours at 35° C.) was 64 µg/mL (≈ 44.4 µM), the “MIC Escherichia coli (GC 4560)” value (Escherichia coli; strain GC 4560, 18 hours at 35° C.) was <0.5 µg/mL and the “MIC Enterococcus avium (GC 4558)” value (Enterococcus sp.; Enterococcus avium (GC 4558)) was 8 µg/mL (≈ 5.55 µM). The “MIC Enterococcus faecalis (ATCC 29212)” value (Enterococcus sp.; Enterococcus faecalis (ATCC 29212)) was 8 µg/mL (≈ 5.55 µM), the “MIC Enterococcus faecalis (GC 2242)” value (Enterococcus sp.; Enterococcus faecalis (GC 2242)) was 8 µg/mL (≈ 5.55 µM) and the “MIC Enterococcus faecalis (GC 2691)” value (Enterococcus sp.; Enterococcus faecalis (GC 2691)) was 8 µg/mL (≈ 5.55 µM). The “MIC Enterococcus faecalis (GC 3059)” value (Enterococcus sp.; Enterococcus faecalis (GC 3059)) was 8 µg/mL (≈ 5.55 µM), the “MIC Enterococcus faecalis (GC 4552)” value (Enterococcus sp.; Enterococcus faecalis (GC 4552)) was 8 µg/mL (≈ 5.55 µM) and the “MIC Enterococcus faecalis (GC 4553)” value (Enterococcus sp.; Enterococcus faecalis (GC 4553)) was 8 µg/mL (≈ 5.55 µM). The “MIC Enterococcus faecalis (GC 4554)” value (Enterococcus sp.; Enterococcus faecalis (GC 4554)) was 8 µg/mL (≈ 5.55 µM), the “MIC Enterococcus faecalis (GC 6189)” value (Enterococcus sp.; Enterococcus faecalis (GC 6189)) was 8 µg/mL (≈ 5.55 µM) and the “MIC Enterococcus faecium (GC 2243)” value (Enterococcus sp.; Enterococcus faecium (GC 2243)) was 8 µg/mL (≈ 5.55 µM). For the same compound, the “MIC Enterococcus faecium (GC 4556)” value (Enterococcus sp.; Enterococcus faecium (GC 4556)) was 8 µg/mL (≈ 5.55 µM), the “MIC Enterococcus faecium (GC 4557)” value (Enterococcus sp.; Enterococcus faecium (GC 4557)) was 2 µg/mL (≈ 1.39 µM) and the “MIC Enterococcus faecalis (ATCC 29212)” value (Enterococcus sp.; strain ATCC 29212) was 8 µg/mL (≈ 5.55 µM). The “MIC Enterococcus faecalis (GC 2242)” value (Enterococcus sp.; strain GC 2242) was 8 µg/mL (≈ 5.55 µM), the “MIC Enterococcus faecium (GC 2243)” value (Enterococcus sp.; strain GC 2243) was 8 µg/mL (≈ 5.55 µM) and the “MIC Enterococcus faecalis (GC 2691)” value (Enterococcus sp.; strain GC 2691) was 8 µg/mL (≈ 5.55 µM). The “MIC Enterococcus faecalis (GC 3059)” value (Enterococcus sp.; strain GC 3059) was 8 µg/mL (≈ 5.55 µM), the “MIC Enterococcus faecalis (GC 4552)” value (Enterococcus sp.; strain GC 4552) was 8 µg/mL (≈ 5.55 µM) and the “MIC Enterococcus faecalis (GC 4553)” value (Enterococcus sp.; strain GC 4553) was 8 µg/mL (≈ 5.55 µM). For the same compound, the “MIC Enterococcus faecalis (GC 4554)” value (Enterococcus sp.; strain GC 4554) was 8 µg/mL (≈ 5.55 µM), the “MIC Enterococcus faecium (GC 4556)” value (Enterococcus sp.; strain GC 4556) was 8 µg/mL (≈ 5.55 µM) and the “MIC Enterococcus faecium (GC 4557)” value (Enterococcus sp.; strain GC 4557) was 2 µg/mL (≈ 1.39 µM). For the same compound, the “MIC Enterococcus avium (GC 4558)” value (Enterococcus sp.; strain GC 4558) was 8 µg/mL (≈ 5.55 µM), the “MIC Enterococcus faecalis (GC 6189)” value (Enterococcus sp.; strain GC 6189) was 8 µg/mL (≈ 5.55 µM) and the “MIC Streptococcus agalactiae (GC 4564)” value (Streptococcus sp.; Streptococcus agalactiae (GC 4564)) was 1 µg/mL (≈ 0.694 µM). The “MIC Streptococcus pneumoniae (ATCC 6301)” value (Streptococcus sp.; Streptococcus pneumoniae (ATCC 6301)) was <0.5 µg/mL, the “MIC Streptococcus pneumoniae (GC 1894)” value (Streptococcus sp.; Streptococcus pneumoniae (GC 1894)) was <0.5 µg/mL and the “MIC Streptococcus pneumoniae (GC 4565)” value (Streptococcus sp.; Streptococcus pneumoniae (GC 4565)) was 2 µg/mL (≈ 1.39 µM). The “MIC Streptococcus pyogenes (GC 4563)” value (Streptococcus sp.; Streptococcus pyogenes (GC 4563)) was <0.5 µg/mL, the “MIC Streptococcus pneumoniae (ATCC 6301)” value (Streptococcus sp.; strain ATCC 6301) was <0.5 µg/mL and the “MIC Streptococcus pneumoniae (GC 1894)” value (Streptococcus sp.; strain GC 1894) was <0.5 µg/mL. The “MIC Streptococcus pyogenes (GC 4563)” value (Streptococcus sp.; strain GC 4563) was <0.5 µg/mL, the “MIC Streptococcus agalactiae (GC 4564)” value (Streptococcus sp.; strain GC 4564) was 1 µg/mL (≈ 0.694 µM) and the “MIC Streptococcus pneumoniae (GC 4565)” value (Streptococcus sp.; strain GC 4565) was 2 µg/mL (≈ 1.39 µM).
